The values that follow come from ChEMBL document CHEMBL3045590, “Design, synthesis, bioactivity, and structure-activity relationship (SAR) studies of novel benzoylphenylureas containing oxime ether group” (2008).

What all share (type): functional
The subject of assay [1] is Mythimna separata. Kind of assay: Larvicidal activity against fourth-instar larval stage of Mythimna separata (Oriental armyworm) in compound-pretreated corn leaves assessed as mortality at 25 +/-1 degC after 4 days.
Assay [2] concerns Cucumis sativus. The assay can be described thus: Growth regulation of Cucumis sativus (cucumber) seeds assessed as stimulation of radicle growth at 10 mg/l at 26 degC after 5 days.
The subject of assay [3] is Culex pipiens pallens. Kind of assay: Larvicidal activity against fourth-instar larval stage of Culex pipiens pallens (mosquito) assessed as mortality at 0.25 mg/l at 25 +/-1 degC after 8 days. Particulars: 192 h.
For assay [4], the system named is Culex pipiens pallens. The assay can be described thus: Larvicidal activity against fourth-instar larval stage of Culex pipiens pallens (mosquito) assessed as mortality at 0.5 mg/l at 25 +/-1 degC after 8 days. The settings on record: 192 h.
Assay [5] has as its system Culex pipiens pallens. Kind of assay: Larvicidal activity against fourth-instar larval stage of Culex pipiens pallens (mosquito) assessed as mortality at 1 mg/l at 25 +/-1 degC after 8 days. Particulars: 192 h.
Assay [6] concerns Culex pipiens pallens. The assay can be described thus: Larvicidal activity against fourth-instar larval stage of Culex pipiens pallens (mosquito) assessed as mortality at 0.05 mg/l at 25 +/-1 degC after 8 days. The settings on record: 192 h.
In assay [7] the test system is Culex pipiens pallens. The assay can be described thus: Larvicidal activity against fourth-instar larval stage of Culex pipiens pallens (mosquito) assessed as mortality at 0.025 mg/l at 25 +/-1 degC after 8 days. The settings on record: 192 h.
Assay [8] concerns Culex pipiens pallens. The assay can be described thus: Larvicidal activity against fourth-instar larval stage of Culex pipiens pallens (mosquito) assessed as mortality at 0.1 mg/l at 25 +/-1 degC after 8 days. Particulars: 192 h.
Assay [9] has as its system Mythimna separata. The assay can be described thus: Larvicidal activity against fourth-instar larval stage of Mythimna separata (Oriental armyworm) in compound-pretreated corn leaves assessed as mortality at 50 mg/l at 25 +/-1 degC after 4 days.
In assay [10] the test system is Mythimna separata. The assay can be described thus: Larvicidal activity against fourth-instar larval stage of Mythimna separata (Oriental armyworm) in compound-pretreated corn leaves assessed as mortality at 100 mg/l at 25 +/-1 degC after 4 days.
Assay [11] deals with Mythimna separata. Kind of assay: Larvicidal activity against fourth-instar larval stage of Mythimna separata (Oriental armyworm) in compound-pretreated corn leaves assessed as mortality at 200 mg/l at 25 +/-1 degC after 4 days.
Assay [12] concerns Culex pipiens pallens. The assay can be described thus: Larvicidal activity against fourth-instar larval stage of Culex pipiens pallens (mosquito) assessed as mortality at 0.0025 mg/l at 25 +/-1 degC after 8 days. The settings on record: 192 h.
Assay [13] deals with Culex pipiens pallens. The assay can be described thus: Larvicidal activity against fourth-instar larval stage of Culex pipiens pallens (mosquito) assessed as mortality at 0.005 mg/l at 25 +/-1 degC after 8 days. The settings on record: 192 h.
Assay [14] relates to Culex pipiens pallens. The assay can be described thus: Larvicidal activity against fourth-instar larval stage of Culex pipiens pallens (mosquito) assessed as mortality at 0.01 mg/l at 25 +/-1 degC after 8 days. The settings on record: 192 h.
Assay [15] concerns Mythimna separata. The assay can be described thus: Larvicidal activity against fourth-instar larval stage of Mythimna separata (Oriental armyworm) in compound-pretreated corn leaves assessed as mortality at 5 mg/l at 25 +/-1 degC after 4 days.
Assay [16] has as its system Mythimna separata. Kind of assay: Larvicidal activity against fourth-instar larval stage of Mythimna separata (Oriental armyworm) in compound-pretreated corn leaves assessed as mortality at 10 mg/l at 25 +/-1 degC after 4 days.
The subject of assay [17] is Mythimna separata. The assay can be described thus: Larvicidal activity against fourth-instar larval stage of Mythimna separata (Oriental armyworm) in compound-pretreated corn leaves assessed as mortality at 25 mg/l at 25 +/-1 degC after 4 days.
Assay [18] deals with Mythimna separata. The assay can be described thus: Larvicidal activity against fourth-instar larval stage of Mythimna separata (Oriental armyworm) in compound-pretreated corn leaves assessed as mortality at 2.5 mg/l at 25 +/-1 degC after 4 days.
Assay [19] has as its system Mythimna separata. The assay can be described thus: Larvicidal activity against fourth-instar larval stage of Mythimna separata (Oriental armyworm) in compound-pretreated corn leaves assessed as mortality at 1 mg/l at 25 +/-1 degC after 4 days.

Values after ≈ are worked out from the molar mass of the structure shown.

Regarding `O=C(NC(=O)c1c(F)cccc1F)Nc1cc(Cl)c(OC(F)(F)C(F)F)c(Cl)c1` [HEXAFLUMURON], in assay [1], the median lethal concentration (LC50) (commonly the concentration that kills 50% of the test population) turned out to be 4.7 mg/L (≈ 10.2 µM).
`CCCCO/N=C/c1ccc(NC(=O)NC(=O)c2c(F)cccc2F)cc1`: the Activity in [2] was found to be 50%. For the same molecule, the mortality – broadly, the percentage killed – at 0.25 µg/mL in [3] is 100%. The mortality at 0.5 µg/mL in assay [4] came out at 100%. Moreover, the mortality at 1 µg/mL in [5] was determined as 100%. Besides, the mortality at 0.05 µg/mL in [6] came to 100%. In assay [7], the mortality at 0.025 µg/mL was 0%. Also, in [8], the mortality at 0.1 µg/mL stood at 100%. Further, the mortality at 50 µg/mL in assay [9] was found to be 0%. Besides, in assay [10], the mortality at 100 µg/mL was 40%. For the same molecule, in assay [11], the mortality at 200 µg/mL amounted to 50%.
`CCC(C)O/N=C/c1ccc(NC(=O)NC(=O)c2c(F)cccc2F)cc1` (configuration not stated): the mortality at 0.0025 µg/mL in [12] was determined as 10%. For the same molecule, the mortality at 0.005 µg/mL in assay [13] was 20%. For the same molecule, the mortality at 0.01 µg/mL in assay [14] turned out to be 40%. Also, the mortality at 0.05 µg/mL in assay [6] turned out to be 100%. Besides, in assay [7], the mortality at 0.025 µg/mL came to 100%. Further, the mortality at 0.1 µg/mL in assay [8] is 100%. The mortality at 5 µg/mL in [15] came to 50%. In assay [16], the mortality at 10 µg/mL worked out at 80%. For the same molecule, in [17], the mortality at 25 µg/mL is 100%. Also, in assay [18], the mortality at 2.5 µg/mL amounted to 30%. The mortality at 1 µg/mL in assay [19] came out at 0%.
For `O=C(NC(=O)c1c(F)cccc1F)Nc1ccc(/C=N/OCCF)cc1`, in assay [2], the Activity is given as 110%. Besides, the mortality at 0.25 µg/mL in assay [3] turned out to be 100%. The mortality at 0.5 µg/mL in assay [4] came to 100%. The mortality at 1 µg/mL in assay [5] amounted to 100%. In addition, the mortality at 0.05 µg/mL in assay [6] was 10%. In addition, in [7], the mortality at 0.025 µg/mL was 0%. Besides, the mortality at 0.1 µg/mL in assay [8] came to 60%. Besides, in [16], the mortality at 10 µg/mL worked out at 20%. Further, the mortality at 50 µg/mL in [9] came to 90%. Also, in assay [17], the mortality at 25 µg/mL was determined as 90%. Also, the mortality at 2.5 µg/mL in assay [18] was 0%.
Regarding `C#CCO/N=C/c1ccc(NC(=O)NC(=O)c2c(F)cccc2F)cc1`, in assay [14], the mortality at 0.01 µg/mL is 0%. Besides, in assay [3], the mortality at 0.25 µg/mL came out at 100%. Also, the mortality at 0.5 µg/mL in [4] was 100%. Further, the mortality at 1 µg/mL in assay [5] is 100%; in assay [19], 0%. For the same molecule, in [6], the mortality at 0.05 µg/mL came out at 40%. Besides, the mortality at 0.025 µg/mL in [7] worked out at 10%. Moreover, the mortality at 0.1 µg/mL in assay [8] was 100%. For the same molecule, the mortality at 10 µg/mL in assay [16] came to 55%. The mortality at 50 µg/mL in assay [9] was found to be 100%. Besides, the mortality at 25 µg/mL in [17] came out at 75%. The mortality at 2.5 µg/mL in [18] was determined as 10%.
For the molecule `COCCO/N=C/c1ccc(NC(=O)NC(=O)c2c(F)cccc2F)cc1`, the Activity in assay [2] turned out to be 30%. For the same molecule, the mortality at 0.5 µg/mL in assay [4] worked out at 0%. In addition, in assay [5], the mortality at 1 µg/mL was 100%. Further, the mortality at 50 µg/mL in [9] was determined as 0%. Moreover, the mortality at 100 µg/mL in assay [10] worked out at 10%. Moreover, the mortality at 200 µg/mL in assay [11] came to 40%.
On to `CCCO/N=C/c1ccc(NC(=O)NC(=O)c2c(F)cccc2F)cc1`, for which the mortality at 0.25 µg/mL in assay [3] amounted to 100%. The mortality at 0.5 µg/mL in assay [4] stood at 100%. Further, the mortality at 1 µg/mL in assay [5] came to 100%. For the same molecule, in assay [6], the mortality at 0.05 µg/mL amounted to 50%. In addition, in assay [7], the mortality at 0.025 µg/mL is 0%. In assay [8], the mortality at 0.1 µg/mL came to 100%. In addition, the mortality at 50 µg/mL in assay [9] is 70%. In addition, the mortality at 25 µg/mL in assay [17] turned out to be 20%. In addition, the mortality at 100 µg/mL in assay [10] was found to be 80%. The mortality at 2.5 µg/mL in assay [18] came out at 0%.
`CCCC(C)O/N=C/c1ccc(NC(=O)NC(=O)c2c(F)cccc2F)cc1` (configuration not stated): the Activity in assay [2] is given as 45%. For the same molecule, in assay [12], the mortality at 0.0025 µg/mL was determined as 10%. Also, in [13], the mortality at 0.005 µg/mL was found to be 20%. Further, the mortality at 0.01 µg/mL in [14] was 40%. In addition, in assay [6], the mortality at 0.05 µg/mL worked out at 100%. Moreover, the mortality at 0.025 µg/mL in [7] amounted to 100%. For the same molecule, in assay [8], the mortality at 0.1 µg/mL was 100%. Also, in assay [16], the mortality at 10 µg/mL worked out at 20%. The mortality at 50 µg/mL in [9] is 80%. The mortality at 25 µg/mL in assay [17] amounted to 70%. Besides, the mortality at 2.5 µg/mL in assay [18] turned out to be 0%.
